Like-named read-outs stand apart in the source and are kept apart here.
Tested on: human dermal papilla cells
Assay: cells
Conditions: Human dermal papilla cell, read-out: viability of human dermal papilla cells
Procedure: Human follicle dermal papilla cells were purchased from PromoCell Co., and a human follicle dermal papilla cell growth medium containing fetal calf serum, bovine pituitary extract, basic fibroblast growth factor and insulin was used and cultured at 37° C. and 5% CO2 incubator.
When the cultured human dermal papilla cells were dispensed in a 48 well plate at 1 × 10^4 cell/mL, and when the amount reached 80% or more, the extract of Example was treated at the concentrations shown in Table 2 below. The positive control group was treated with minoxidil at concentrations of 10 and 50 µM. After culturing the cells for 24, 48, and 72 hours, 200 µL of a 0.5 mg/mL solution of MTT diluted in the medium were added and cultured at 37° C. for 4 hours. After removing the solution, adding 200 µL of DMSO, and transferring 100 µL to a 96 well plate, absorbance was measured at 585 nm using a microplate reader. The average absorbance value for each sample group was obtained, and the cell viability was evaluated by comparing the average absorbance value with the absorbance value of the control group.

Nc1cc(N2CCCCC2)nc(N)[n+]1[O-] [Positive control group, minoxidil]
viability at 10 µM (24 h): 104% | viability at 50 µM (24 h): 107% | viability at 10 µM (48 h): 107% | viability at 50 µM (48 h): 116% | viability at 10 µM (72 h): 115% | viability at 50 µM (72 h): 125%
